The results in this text go back to PMC11109252, “Synthetic aporphine alkaloids are potential therapeutics for Leigh syndrome” (Scientific Reports, 2024).

For the first test, the system named is LS patient-derived skin fibroblasts. Briefly: Anti-RSL3-induced cell death activity assay. The test is classed as cell-based. The settings on record: Homo sapiens, Skin fibroblast; co-added with RSL3 at a concentration giving 10%-20% cell viability; viable cells 24 h after addition; read-out: Anti-RSL3-induced cell death effect EC50. How it is done: RSL3 is a glutathione peroxidase 4 (GPx4) inhibitor that specifically induces ferroptosis. Ferroptosis is an iron-dependent non-apoptotic type of cell death caused by lipid peroxidation.
After 24 h of incubation, the reagents were added to the RSL3 (−) derivative (−) and RSL3 ( +) derivative ( +) groups. […] The final concentration of RSL3 was 50–200 nM that would cause approximately 80–90% cell death after 24 h of incubation. The percentage of viable cells was measured 24 h after addition of each reagent.
As for `CN1CCc2cccc3c2[C@H]1Cc1ccc(-c2ccccc2)c(O)c1-3` [D45, (9R)-10-methyl-4-phenyl-10-azatetracyclo[7.7.1.0²,⁷.0¹³,¹⁷]heptadeca-1(17),2,4,6,13,15-hexaen-3-ol], the EC50 came out at 745 nM.

In another test the test system is GDF-15. Nature of the test: GDF-15 levels in the cell supernatant (ELISA). The settings on record: 24 h after co-administration with RSL3, compared to RSL3-only. It counts as cell-based, human. As for the experimental part: GDF-15 is a biomarker that is elevated in the blood of patients with mitochondrial diseases and is used for the diagnosis of mitochondrial diseases and determination of therapeutic efficacy[26],[36]. […] As previously reported, GDF-15 levels were measured by an enzyme-linked immuno sorbent assay (ELISA) using the Quantikin Human GDF-15 ELISA Kit (R&D Systems, Minneapolis, MN, USA). Samples were obtained from anti-RSL3-induced cell death assays with candidate compounds (D31, D55, and D40), and cell supernatants 24 h after reagent addition were used for the assay. Measured values were calculated with reference to internal standards and compared to GDF-15 values.
As for `CCOC(=O)c1ccc(NC2CCCCC2)c(N)c1` [ferrostatin-1, reference compound], the “GDF-15 elevation in cell supernatant” value is recorded as “significant decrease”.

Another test has as its system LS patient-derived skin fibroblasts. Nature of the test: Anti-BSO-induced cell death activity assay. The settings on record: Homo sapiens, Skin fibroblast, 48 h, read-out: Anti-BSO-induced cell death effect EC50, co-added with BSO at a concentration giving 10%-20% cell viability; viable cells 48 h after addition.
As for `CCCCOc1ccc2c(c1O)-c1cccc3c1[C@@H](C2)N(C)CC3` [D36, (9R)-4-butoxy-10-methyl-10-azatetracyclo[7.7.1.0²,⁷.0¹³,¹⁷]heptadeca-1(17),2,4,6,13,15-hexaen-3-ol], the EC50 amounted to 123 nM.
Same read-out and setting: the value for `CN1CCc2cccc3c2[C@H]1Cc1ccc(OCCc2ccccc2)c(O)c1-3` [D48, (9R)-10-methyl-4-(2-phenylethoxy)-10-azatetracyclo[7.7.1.0²,⁷.0¹³,¹⁷]heptadeca-1(17),2,4,6,13,15-hexaen-3-ol] was 128 nM; that for `CN1CCc2cccc3c2[C@@H]1Cc1ccc(O)c(O)c1-3` [D24, (9S)-10-methyl-10-azatetracyclo[7.7.1.0²,⁷.0¹³,¹⁷]heptadeca-1(17),2(7),3,5,13,15-hexaene-3,4-diol] was 1030 nM; that for `CN1CCc2cccc3c2[C@H]1Cc1ccc(OCc2ccccc2)c(O)c1-3` [D47, (9R)-4-(benzyloxy)-10-methyl-10-azatetracyclo[7.7.1.0²,⁷.0¹³,¹⁷]heptadeca-1(17),2,4,6,13,15-hexaen-3-ol] was 124 nM.
Still for that read-out and setting: to `COc1cc(O)c2c(c1)C[C@@H]1c3c(cc4c(c3-2)OCO4)CCN1C` [D10, (12R)-16-methoxy-11-methyl-3,5-dioxa-11-azapentacyclo[10.7.1.0²,⁶.0⁸,²⁰.0¹⁴,¹⁹]icosa-1(20),2(6),7,14,16,18-hexaen-18-ol] belongs 750 nM; to `CN1CCc2cccc3c2[C@H]1Cc1ccc(OCCCCl)c(O)c1-3` [D39, (9R)-4-(3-chloropropoxy)-10-methyl-10-azatetracyclo[7.7.1.0²,⁷.0¹³,¹⁷]heptadeca-1(17),2,4,6,13,15-hexaen-3-ol], 259 nM; to `CCCCCCCCCOc1ccc2c(c1O)-c1cccc3c1[C@@H](C2)N(C)CC3` [D41, (9R)-10-methyl-4-(nonyloxy)-10-azatetracyclo[7.7.1.0²,⁷.0¹³,¹⁷]heptadeca-1(17),2,4,6,13,15-hexaen-3-ol], 648 nM.
On the same count and under the same terms, to `CN1CCc2cccc3c2[C@H]1Cc1ccc(OCCC(c2ccccc2)c2ccccc2)c(O)c1-3` [D54, (9R)-4-(3,3-diphenylpropoxy)-10-methyl-10-azatetracyclo[7.7.1.0²,⁷.0¹³,¹⁷]heptadeca-1(17),2,4,6,13,15-hexaen-3-ol] belongs 497 nM; to `CN1CCc2cccc3c2[C@H]1Cc1ccc(OCCCC(F)(F)F)c(O)c1-3` [D42, (9R)-10-methyl-4-(4,4,4-trifluorobutoxy)-10-azatetracyclo[7.7.1.0²,⁷.0¹³,¹⁷]heptadeca-1(17),2,4,6,13,15-hexaen-3-ol], 167 nM.
`CN1CCc2cccc3c2[C@H]1Cc1ccc(-c2ccccc2)c(O)c1-3` [D45, (9R)-10-methyl-4-phenyl-10-azatetracyclo[7.7.1.0²,⁷.0¹³,¹⁷]heptadeca-1(17),2,4,6,13,15-hexaen-3-ol]: the EC50 is below 100 nM.
With `COc1ccc2c(c1OC)C[C@@H]1c3c(cc4c(c3-2)OCO4)CCN1C` [D8, (12R)-15,16-dimethoxy-11-methyl-3,5-dioxa-11-azapentacyclo[10.7.1.0²,⁶.0⁸,²⁰.0¹⁴,¹⁹]icosa-1(20),2(6),7,14,16,18-hexaene], the EC50 is 180 nM.
`CN1CCc2cccc3c2[C@H]1Cc1ccc(OCCCN)c(O)c1-3` [D27, (9R)-4-(3-aminopropoxy)-10-methyl-10-azatetracyclo[7.7.1.0²,⁷.0¹³,¹⁷]heptadeca-1(17),2,4,6,13,15-hexaen-3-ol]: the EC50 amounted to 221 nM.
The same measure, in the same setting: to `COc1cc2c3c(c1O)-c1c(ccc(OC)c1OC)C[C@H]3N(C)CC2` [D26, (9R)-3,4,15-trimethoxy-10-methyl-10-azatetracyclo[7.7.1.0²,⁷.0¹³,¹⁷]heptadeca-1(17),2,4,6,13,15-hexaen-16-ol] belongs 289 nM.
For the compound `CN1CCc2cc3c(c4c2[C@@H]1Cc1ccccc1-4)OCO3` [D18, (12S)-11-methyl-3,5-dioxa-11-azapentacyclo[10.7.1.0²,⁶.0⁸,²⁰.0¹⁴,¹⁹]icosa-1(20),2(6),7,14,16,18-hexaene], the EC50 was determined as 492 nM.
With `COc1cc2c(cc1OC)-c1c(OC)c(OC)cc3c1[C@@H](C2)N(C)CC3` [D11, (9R)-4,5,15,16-tetramethoxy-10-methyl-10-azatetracyclo[7.7.1.0²,⁷.0¹³,¹⁷]heptadeca-1(17),2,4,6,13,15-hexaene], the EC50 came to 6920 nM.
Same read-out and setting: to `CCCN1CCc2cccc3c2[C@H]1Cc1ccc(O)c(O)c1-3` [D3, (9R)-10-propyl-10-azatetracyclo[7.7.1.0²,⁷.0¹³,¹⁷]heptadeca-1(17),2,4,6,13,15-hexaene-3,4-diol] belongs 186 nM; to `COc1cc2c(cc1O)CC1NCCc3cc(OC)c(OC)c-2c31` (centres unmarked) [D25, 4,15,16-trimethoxy-10-azatetracyclo[7.7.1.0²,⁷.0¹³,¹⁷]heptadeca-1(17),2(7),3,5,13,15-hexaen-5-ol], 2050 nM.
With `CCCN1CCc2cccc3c2[C@H]1Cc1ccc2c(c1-3)OCO2` [D5, (12R)-13-propyl-4,6-dioxa-13-azapentacyclo[10.7.1.0²,¹⁰.0³,⁷.0¹⁶,²⁰]icosa-1(20),2,7,9,16,18-hexaene], the EC50 was determined as 2110 nM.
Same read-out and setting: the value for `COc1cccc2c1C[C@@H]1c3c(cc4c(c3-2)OCO4)CCN1C` [D9, (12R)-15-methoxy-11-methyl-3,5-dioxa-11-azapentacyclo[10.7.1.0²,⁶.0⁸,²⁰.0¹⁴,¹⁹]icosa-1(20),2(6),7,14,16,18-hexaene] was 393 nM.
Same read-out and setting: the value for `Oc1ccc2c(c1O)-c1cccc3c1[C@@H](C2)NCC3` [D4, (9R)-10-azatetracyclo[7.7.1.0²,⁷.0¹³,¹⁷]heptadeca-1(17),2,4,6,13,15-hexaene-3,4-diol] was 1990 nM.
Still for that read-out and setting: to `COc1cc2c(cc1OC)-c1c3c(c(OC)c4c1C(C2)N(C)CC4)OCO3` (centres unmarked) [D20, 7,16,17-trimethoxy-11-methyl-3,5-dioxa-11-azapentacyclo[10.7.1.0²,⁶.0⁸,²⁰.0¹⁴,¹⁹]icosa-1(20),2(6),7,14,16,18-hexaene] belongs 798 nM.
In the case of `CN1CCc2cccc3c2[C@H]1Cc1ccc(O)c(O)c1-3` [D15, (9R)-10-methyl-10-azatetracyclo[7.7.1.0²,⁷.0¹³,¹⁷]heptadeca-1(17),2,4,6,13,15-hexaene-3,4-diol, reference compound], the EC50 was 613 nM.
The same measure, in the same setting: to `CN1CCc2cccc3c2[C@H]1Cc1ccc(OCCCc2ccccc2)c(O)c1-3` [D37, (9R)-10-methyl-4-(3-phenylpropoxy)-10-azatetracyclo[7.7.1.0²,⁷.0¹³,¹⁷]heptadeca-1(17),2,4,6,13,15-hexaen-3-ol] belongs 186 nM; to `COc1cc2c(cc1O)C[C@@H]1c3c(cc(O)c(OC)c3-2)CCN1C` [D19, (9R)-4,16-dimethoxy-10-methyl-10-azatetracyclo[7.7.1.0²,⁷.0¹³,¹⁷]heptadeca-1(17),2,4,6,13,15-hexaene-5,15-diol], 5180 nM.
Same read-out and setting: the value for `CN1CCc2cccc3c2[C@H]1Cc1ccc(OCCCCc2ccccc2)c(O)c1-3` [D50, (9R)-10-methyl-4-(4-phenylbutoxy)-10-azatetracyclo[7.7.1.0²,⁷.0¹³,¹⁷]heptadeca-1(17),2,4,6,13,15-hexaen-3-ol] was 207 nM.
Regarding `CN1CCc2cccc3c2[C@H]1Cc1ccc(OCCCO)c(O)c1-3` [D38, (9R)-4-(3-hydroxypropoxy)-10-methyl-10-azatetracyclo[7.7.1.0²,⁷.0¹³,¹⁷]heptadeca-1(17),2,4,6,13,15-hexaen-3-ol], the EC50 came out at 165 nM.

In another test the target is T1, dopamine D2 receptors (Homo sapiens, UniProt P14416).
T1 construct: host or cells: CHO-K1 (GeneBLAzer D2-Gqo5-NFAT-bla)
T1 sequence (P14416 whole entry): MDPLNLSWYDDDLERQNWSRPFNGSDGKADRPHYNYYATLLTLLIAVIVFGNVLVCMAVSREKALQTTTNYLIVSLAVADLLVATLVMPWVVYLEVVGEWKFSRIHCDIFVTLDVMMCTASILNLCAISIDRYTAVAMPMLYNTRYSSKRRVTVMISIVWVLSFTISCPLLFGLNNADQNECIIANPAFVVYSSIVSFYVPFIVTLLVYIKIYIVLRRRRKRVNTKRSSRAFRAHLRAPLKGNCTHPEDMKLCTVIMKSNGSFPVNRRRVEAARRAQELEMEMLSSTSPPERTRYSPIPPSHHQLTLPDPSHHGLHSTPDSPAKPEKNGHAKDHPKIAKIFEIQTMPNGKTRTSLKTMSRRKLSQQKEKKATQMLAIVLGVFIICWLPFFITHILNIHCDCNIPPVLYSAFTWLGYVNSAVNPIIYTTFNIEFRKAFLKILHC
Briefly: Dopamine D2 receptor agonist assay (GeneBLAzer D2-Gqo5-NFAT-bla CHO-K1 reporter). The settings on record: CHO cells stably expressing dopamine D2 receptors; NA: no activity; read-out: Dopamine D2 receptor agonist (DA) activity EC50. It counts as cell-based. As for the experimental part: CHO-K1 cells were spread in 384-well plates at 10,000 cells/32 μL/well, taking care not to touch the bottom of the wells. Cell-free-wells were injected with the same volume (32 μL) of assay medium. The plates were then incubated in a CO2 incubator for 16–20 h. […] The diluted solution (8 μL/well) was added to 384-well plates seeded with CHO-K1 cells and incubated in a CO2 incubator for 5 h. […] The addition of the drug induces D2 receptor activation, which activates signaling pathways and transcription factors, resulting in the expression of a reporter gene (β-lactamase) and cleavage of the fluorescence resonance energy transfer (FRET) substrate, causing the fluorescence to change from green to blue.
Turning to `CN1CCc2cccc3c2[C@H]1Cc1ccc(-c2ccccc2)c(O)c1-3` [D45, (9R)-10-methyl-4-phenyl-10-azatetracyclo[7.7.1.0²,⁷.0¹³,¹⁷]heptadeca-1(17),2,4,6,13,15-hexaen-3-ol], the EC50 came to 2630 nM.
Same read-out and setting: to `CN1CCc2cccc3c2[C@H]1Cc1ccc(OCCCN)c(O)c1-3` [D27, (9R)-4-(3-aminopropoxy)-10-methyl-10-azatetracyclo[7.7.1.0²,⁷.0¹³,¹⁷]heptadeca-1(17),2,4,6,13,15-hexaen-3-ol] belongs 254 nM.
Consider `Oc1ccc2c(c1O)-c1cccc3c1[C@@H](C2)NCC3` [D4, (9R)-10-azatetracyclo[7.7.1.0²,⁷.0¹³,¹⁷]heptadeca-1(17),2,4,6,13,15-hexaene-3,4-diol], for which the EC50 came to 582 nM.
For `CN1CCc2cccc3c2[C@H]1Cc1ccc(OCCCO)c(O)c1-3` [D38, (9R)-4-(3-hydroxypropoxy)-10-methyl-10-azatetracyclo[7.7.1.0²,⁷.0¹³,¹⁷]heptadeca-1(17),2,4,6,13,15-hexaen-3-ol], the EC50 turned out to be 3650 nM.
